From patent publication US20050215601A1, “Therapeutic agent for rheumatic disease comprising benzamide derivative as active ingredient” (SANTEN PHARMACEUTICAL CO., LTD., priority 2002, published 2005)

Tested on: type II collagen-induced arthritis of rats
Assay: Effects on type II collagen-induced arthritis (hind paw volume)
Format: in vivo, rat
Conditions: rats (female) sensitized with bovine type II collagen; test compound 6 mg/kg orally immediately before, 7 and 14 days after primary sensitization; average of eight per group; FIG. 1
Method: 1) Effects on Type II Collagen-Induced Arthritis
Model of type II collagen-induced arthritis has been widely used as an animal model for evaluating effects of drugs on rheumatic diseases (Nature, 283, 666-668 (1980)). Anti-arthritic effects of the present compounds were evaluated and studied according to this model.
A solution of bovine joint cartilage-derived type II collagen in 0.05 N acetic acid (2 mg/ml) was mixed with Freund's incomplete adjuvant of the same volume to prepare an emulsion (final concentration: 1 mg/ml).
As a primary sensitization, this emulsion was injected intradermally into five sites on the back of each rat (female, seven weeks old, weight: approximately 130 to 160 g) at a dose of 100 μl (total 500 μl: corresponding to 500 μg of type II collagen per rat). Seven days after the primary sensitization, 100 μl of this emulsion was injected intradermally into a root of the rat tail again (secondary sensitization). 0.5 ml/kg of a test compound solution (the test compound was dissolved in a 5% carboxymethylcellulose solution as a vehicle) was orally administered immediately before the primary sensitization, 7 days after the primary sensitization and 14 days after the primary sensitization. The dosage of test compound was adjusted to 6 mg/kg. […]

In the case of Nc1ccccc1NC(=O)c1ccc(CNC(=O)COc2cccnc2)cc1 [Test compound 2, N-(2-aminophenyl)-4-[N-(pyridin-3 yl)oxyacetylaminomethyl]benzamide], the “increase in hind paw volume” value is reported as “any increase in hind paw volume could not be found”.
